Laboratory results: patent US20230017045A1, “PYRIDINE AND PYRIMIDINE CARBOXYLATE HERBICIDES AND METHODS OF USE THEREOF” (Dow AgroSciences LLC, priority 2017, published 2023)
Like-named read-outs stand apart in the source and are kept apart here.

Test system: test plant species
Assay: Post-emergent herbicidal activity test (greenhouse, foliar spray, visual growth reduction)
Type: in vivo
Conditions: post-emergence, 336 h, 140 g ai/ha, 14 days after application
Method: Post-emergent Test: Seeds or nutlets of the desired test plant species were planted in Sun Gro Metro-Mix® 360 planting mixture, which typically has a pH of 6.0 to 6.8 and an organic matter content of about 30 percent, in plastic pots with a surface area of 64 square centimeters. In some aspects, to ensure good germination and healthy plants, a fungicide treatment and/or other chemical or physical treatment was applied. The plants were grown for 7-21 d in a greenhouse with an approximate 15 h photoperiod which was maintained at 23-29° C. during the day and 22-28° C. during the night. Nutrients and water were added on a regular basis and supplemental lighting was provided with overhead metal halide 1000-Watt lamps as necessary. Plants were used for testing when they reached the first or second true leaf stage. A weighed amount, determined by the highest rate to be tested, of each test compound was placed in a 25 mL glass vial and was dissolved in 4 mL of a 97:3 v/v mixture of acetone and DMSO to obtain concentrated stock solutions. […] The concentrated stock solutions obtained were diluted with 20 mL of an aqueous mixture containing acetone, water, isopropyl alcohol, DMSO, […] crop oil concentrate, and X-77 surfactant in a 48.5:39:10:1.5:1.0:0.02 v/v ratio to obtain spray solutions containing the application rate. Compound requirements are based upon a 12 mL application volume at a rate of 187 liters per hectare (L/ha). Formulated compounds were applied to the plant material with an overhead Mandel track sprayer equipped with […] nozzles calibrated to deliver 187 L/ha over an application area of 0.64 square meters at a spray height of 18 inches (43 cm) above the average plant canopy height. Control plants were sprayed in the same manner with the solvent blank. The treated plants and control plants were placed in a greenhouse as described above and watered by subirrigation to prevent wash-off of the test compounds. After 14 d, the condition of the test plants as compared with that of the nontreated and control plants was determined visually and scored on a scale of 0 to 100 percent where 0 corresponds to no injury and 100 corresponds to complete control. In the reporting of the results, Table A: Percent Growth Reduction Conversion Table was used.

[1] = ALOMY: blackgrass (Alopecurus myosuroides), read-out: Visual Growth Reduction (%) 14 Days After Application, ALOMY
[2] = AMARE: redroot pigweed (Amaranthus retroflexus), read-out: Visual Growth Reduction (%) 14 Days After Application, AMARE
[3] = AVEFA: wild oat (Avena fatua), read-out: Visual Growth Reduction (%) 14 Days After Application, AVEFA
[4] = CHEAL: lambsquarters (Chenopodium album), read-out: Visual Growth Reduction (%) 14 Days After Application, CHEAL
[5] = CIRAR: canada thistle (Cirsium arvense), read-out: Visual Growth Reduction (%) 14 Days After Application, CIRAR
[6] = CYPES: yellow nutsedge (Cyperus esculentus), read-out: Visual Growth Reduction (%) 14 Days After Application, CYPES
[7] = DIGSA: crabgrass (Digitaria sanguinalis), read-out: Visual Growth Reduction (%) 14 Days After Application, DIGSA
[8] = ECHCG: barnyardgrass (Echinochloa crus-galli), read-out: Visual Growth Reduction (%) 14 Days After Application, ECHCG
[9] = IPOHE: ivy-leaf morning glory (Ipomoea hederacea), read-out: Visual Growth Reduction (%) 14 Days After Application, IPOHE
[10] = KCHSC: kochia (Bassia scoparia), read-out: Visual Growth Reduction (%) 14 Days After Application, KCHSC
[11] = ORYSA: rice (Oryza sativa), read-out: Visual Growth Reduction (%) 14 Days After Application, ORYSA
[12] = SETFA: giant foxtail (Setaria faberi), read-out: Visual Growth Reduction (%) 14 Days After Application, SETFA
[13] = SORVU: grain sorghum (Sorghum vulgare), read-out: Visual Growth Reduction (%) 14 Days After Application, SORVU
[14] = STEME: common chickweed (Stellaria media), read-out: Visual Growth Reduction (%) 14 Days After Application, STEME
[15] = TRZAS: wheat, spring (Triticum aestivum), read-out: Visual Growth Reduction (%) 14 Days After Application, TRZAS

Q: With `COC(=O)c1nc(-c2ccc(C(F)(F)F)cc2Cl)ncc1OC` [F104, Methyl 2-(2-chloro-4-(trifluoromethyl)phenyl)-5-methoxypyrimidine-4-carboxylate] as the compound, how does the pest or weed control at 140 g/ha [1] read?
A: 0 to 29%

Q: And the pest or weed control at 140 g/ha [2]?
A: 0 to 29%

Q: What about the pest or weed control at 140 g/ha [3] of the same compound?
A: 0 to 29%

Q: And the pest or weed control at 140 g/ha [4]?
A: 0 to 29%

Q: What about the pest or weed control at 140 g/ha [5] of the same compound?
A: 0 to 29%

Q: And the pest or weed control at 140 g/ha [6]?
A: 0 to 29%

Q: What about the pest or weed control at 140 g/ha [7] of the same compound?
A: 60 to 74%

Q: What about the pest or weed control at 140 g/ha [8] of the same compound?
A: 0 to 29%

Q: What about the pest or weed control at 140 g/ha [9] of the same compound?
A: 60 to 74%

Q: And the pest or weed control at 140 g/ha [10]?
A: 0 to 29%

Q: And the pest or weed control at 140 g/ha [11]?
A: 0 to 29%

Q: What about the pest or weed control at 140 g/ha [12] of the same compound?
A: 0 to 29%

Q: And the pest or weed control at 140 g/ha [13]?
A: 60 to 74%

Q: What about the pest or weed control at 140 g/ha [14] of the same compound?
A: 0 to 29%

Q: And the pest or weed control at 140 g/ha [15]?
A: 0 to 29%

Q: `COC(=O)c1nc(-c2ccc(C(F)(F)F)cc2Cl)ncc1Cl` [F105, Methyl 5-chloro-2-(2-chloro-4-(trifluoromethyl)phenyl)pyrimidine-4-carboxylate] was tested. Which pest or weed control at 140 g/ha [1] did it give?
A: 0 to 29%

Q: And the pest or weed control at 140 g/ha [2]?
A: 95 to 100%

Q: And the pest or weed control at 140 g/ha [3]?
A: 0 to 29%

Q: What about the pest or weed control at 140 g/ha [4] of the same compound?
A: 85 to 94%

Q: What about the pest or weed control at 140 g/ha [5] of the same compound?
A: 85 to 94%

Q: What about the pest or weed control at 140 g/ha [6] of the same compound?
A: 0 to 29%

Q: And the pest or weed control at 140 g/ha [7]?
A: 85 to 94%

Q: What about the pest or weed control at 140 g/ha [8] of the same compound?
A: 60 to 74%

Q: And the pest or weed control at 140 g/ha [9]?
A: 95 to 100%

Q: What about the pest or weed control at 140 g/ha [10] of the same compound?
A: 60 to 74%

Q: And the pest or weed control at 140 g/ha [11]?
A: 0 to 29%

Q: And the pest or weed control at 140 g/ha [12]?
A: 60 to 74%

Q: And the pest or weed control at 140 g/ha [13]?
A: 75 to 84%

Q: And the pest or weed control at 140 g/ha [14]?
A: 0 to 29%

Q: What about the pest or weed control at 140 g/ha [15] of the same compound?
A: 0 to 29%

Q: Which pest or weed control at 140 g/ha [1] does the source give for `COC(=O)c1nc(-c2ccc(C(F)(F)F)cc2)c(Cl)cc1Cl` [F106, Methyl 3,5-dichloro-6-(4-(trifluoromethyl)phenyl)picolinate] here?
A: 0 to 29%

Q: And the pest or weed control at 140 g/ha [2]?
A: 45 to 59%

Q: And the pest or weed control at 140 g/ha [3]?
A: 0 to 29%

Q: And the pest or weed control at 140 g/ha [4]?
A: 30 to 44%

Q: And the pest or weed control at 140 g/ha [5]?
A: 0 to 29%

Q: And the pest or weed control at 140 g/ha [6]?
A: 0 to 29%

Q: And the pest or weed control at 140 g/ha [7]?
A: 45 to 59%

Q: And the pest or weed control at 140 g/ha [8]?
A: 0 to 29%

Q: And the pest or weed control at 140 g/ha [9]?
A: 45 to 59%

Q: And the pest or weed control at 140 g/ha [10]?
A: 0 to 29%

Q: And the pest or weed control at 140 g/ha [11]?
A: 0 to 29%

Q: What about the pest or weed control at 140 g/ha [12] of the same compound?
A: 0 to 29%

Q: What about the pest or weed control at 140 g/ha [13] of the same compound?
A: 30 to 44%

Q: And the pest or weed control at 140 g/ha [14]?
A: 0 to 29%

Q: What about the pest or weed control at 140 g/ha [15] of the same compound?
A: 0 to 29%

Q: Which pest or weed control at 140 g/ha [1] does the source give for `COC(=O)c1nc(-c2ccc(C(F)(F)F)cc2Cl)c(F)cc1Cl` [F107, methyl 3-chloro-6-(2-chloro-4-(trifluoromethyl)phenyl)-5-fluoropicolinate] here?
A: 30 to 44%

Q: What about the pest or weed control at 140 g/ha [2] of the same compound?
A: 95 to 100%

Q: And the pest or weed control at 140 g/ha [3]?
A: 45 to 59%

Q: And the pest or weed control at 140 g/ha [4]?
A: 95 to 100%

Q: What about the pest or weed control at 140 g/ha [5] of the same compound?
A: 95 to 100%

Q: What about the pest or weed control at 140 g/ha [6] of the same compound?
A: 0 to 29%

Q: What about the pest or weed control at 140 g/ha [7] of the same compound?
A: 95 to 100%

Q: What about the pest or weed control at 140 g/ha [8] of the same compound?
A: 0 to 29%

Q: What about the pest or weed control at 140 g/ha [9] of the same compound?
A: 95 to 100%

Q: And the pest or weed control at 140 g/ha [10]?
A: 60 to 74%

Q: And the pest or weed control at 140 g/ha [11]?
A: 0 to 29%

Q: And the pest or weed control at 140 g/ha [12]?
A: 45 to 59%

Q: What about the pest or weed control at 140 g/ha [13] of the same compound?
A: 95 to 100%

Q: And the pest or weed control at 140 g/ha [14]?
A: 0 to 29%

Q: What about the pest or weed control at 140 g/ha [15] of the same compound?
A: 45 to 59%

Q: Which pest or weed control at 140 g/ha [1] does the source give for `COC(=O)c1nc(-c2ccc(C(F)(F)F)cc2Cl)cc(Cl)c1Cl` [F108, methyl 3,4-dichloro-6-(2-chloro-4-(trifluoromethyl)phenyl)picolinate] here?
A: 0 to 29%

Q: What about the pest or weed control at 140 g/ha [2] of the same compound?
A: 0 to 29%

Q: What about the pest or weed control at 140 g/ha [3] of the same compound?
A: 0 to 29%

Q: What about the pest or weed control at 140 g/ha [4] of the same compound?
A: 0 to 29%

Q: And the pest or weed control at 140 g/ha [5]?
A: 0 to 29%

Q: And the pest or weed control at 140 g/ha [6]?
A: 0 to 29%

Q: And the pest or weed control at 140 g/ha [7]?
A: 0 to 29%

Q: And the pest or weed control at 140 g/ha [8]?
A: 0 to 29%

Q: What about the pest or weed control at 140 g/ha [9] of the same compound?
A: 30 to 44%

Q: What about the pest or weed control at 140 g/ha [10] of the same compound?
A: 0 to 29%

Q: What about the pest or weed control at 140 g/ha [11] of the same compound?
A: 0 to 29%

Q: And the pest or weed control at 140 g/ha [12]?
A: 0 to 29%

Q: What about the pest or weed control at 140 g/ha [13] of the same compound?
A: 0 to 29%

Q: What about the pest or weed control at 140 g/ha [15] of the same compound?
A: 0 to 29%
